Assay results from patent US8822449B2, “Substituted aminoindanes and analogs thereof, and the pharmaceutical use thereof” (Sanofi, priority 2008, dated 2014).
pIC50: −log10 of the molar value.

Target: T1, sodium-proton exchanger of subtype 3 (NHE3) (Homo sapiens, UniProt P48764)
T1 construct: expressed in transfected cells
T1 sequence (P48764 26-834): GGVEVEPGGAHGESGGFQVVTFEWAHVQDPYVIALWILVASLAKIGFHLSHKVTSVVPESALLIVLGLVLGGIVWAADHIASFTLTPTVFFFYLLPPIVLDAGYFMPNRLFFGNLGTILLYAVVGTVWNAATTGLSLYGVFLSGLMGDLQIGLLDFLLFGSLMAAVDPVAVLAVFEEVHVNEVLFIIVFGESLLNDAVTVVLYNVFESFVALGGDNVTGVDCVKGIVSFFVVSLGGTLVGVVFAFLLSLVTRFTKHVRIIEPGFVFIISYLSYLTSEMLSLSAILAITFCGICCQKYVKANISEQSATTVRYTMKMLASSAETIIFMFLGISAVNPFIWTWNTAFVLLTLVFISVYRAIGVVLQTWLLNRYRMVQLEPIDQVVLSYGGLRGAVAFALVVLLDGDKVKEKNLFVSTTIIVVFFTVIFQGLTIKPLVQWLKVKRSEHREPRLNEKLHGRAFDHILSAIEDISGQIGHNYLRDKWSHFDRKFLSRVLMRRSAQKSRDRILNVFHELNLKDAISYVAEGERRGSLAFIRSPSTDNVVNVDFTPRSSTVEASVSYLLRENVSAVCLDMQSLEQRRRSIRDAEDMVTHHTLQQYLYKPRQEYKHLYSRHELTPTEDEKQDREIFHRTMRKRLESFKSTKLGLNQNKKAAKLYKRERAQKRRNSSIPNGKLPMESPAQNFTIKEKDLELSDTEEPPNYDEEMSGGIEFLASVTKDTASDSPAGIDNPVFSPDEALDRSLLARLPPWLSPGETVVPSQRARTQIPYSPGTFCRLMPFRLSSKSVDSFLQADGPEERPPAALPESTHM
Test: Recovery of intracellular pH (pHi) after acidification in LAP1 cells stably expressing NHE3 (BCECF fluorescence, FLIPR)
Assay type: cell-based
Details: Activity range (inhibitory effect on NHE3), LAP1 cells stably expressing NHE3; pH recovery after acidification; range 1 is % inhibition at 10 μM

Row | Compound | pIC50
1 | CN(C)S(=O)(=O)c1ccc(O[C@@H]2c3ccccc3C[C@H]2N2CCCC2)c(Cl)c1Cl (racemic) [Example 362, 2,3-dichloro-N,N-dimethyl-4-(rac-trans-(1,2)-2-pyrrolidin-1-ylindan-1-yloxy)benzenesulfonamide] | > 6.00

Same assay, conditions: LAP1 cells stably expressing NHE3; pH recovery after acidification; range 1 is % inhibition at 10 μM; read-out: Activity range (inhibitory effect on NHE3)

Row | Compound | inhibition at 10 µM [%] | pIC50
2 | O=C(O[C@H]1c2ccccc2C[C@@H]1N1CCCC1)c1ccc(N2CCCC2=O)cc1 [Example 461, 4-(2-Oxopyrrolidin-1-yl)benzoic acid (1S,2S)-2-pyrrolidin-1-ylindan-1-yl ester] | 20 to 50 | –
3 | CC1(C)NC(=O)N(c2ccc(F)c(O[C@H]3c4cc(Cl)cc(Cl)c4C[C@@H]3N3CC[C@@H](O)C3)c2)C1=O [Example 416, 3-{3-[(1S,2S)-4,6-dichloro-2-((R)-3-hydroxypyrrolidin-1-yl)indan-1-yloxy]-4-fluorophenyl}-5,5-dimethylimidazolidine-2,4-dione] | – | 5.00 to 6.00
4 | N#Cc1cc(Br)ccc1O[C@H]1c2ccccc2CC[C@@H]1N1CCC[C@@H](N)C1 (racemic) [Example 369, 2-[rac-trans-(1,2)-2-((S)-3-aminopiperidin-1-yl)-1,2,3,4-tetrahydronaphthalen-1-yloxy]-5-bromobenzonitrile] | 20 to 50 | –
5 | N[C@@H]1CCCN([C@@H]2Cc3ccccc3[C@H]2Oc2ccc(NC(=O)OCc3ccccc3)cc2)C1 (racemic) [Example 238, {4-[rac-trans-(1,2)-2-((R)-3-aminopiperidin-1-yl)indan-1-yloxy]phenyl}carbamic acid benzyl ester] | – | 5.00 to 6.00
6 | NCC1CCN([C@@H]2Cc3ccccc3[C@H]2Oc2cccc(N3CCNCC3)c2)C1 (mixture of isomers) [Example 617, C-{1-[rac-trans-(1,2)-1-(3-piperazin-1-ylphenoxy)indan-2-yl]pyrrolidin-3-yl}methylamine] | – | 5.00 to 6.00
7 | O=C1CNC(=O)N1c1ccc(O[C@H]2c3cc(Cl)cc(F)c3C[C@@H]2NC2CCCC2)c(F)c1 [Example 753, 3-[4-(trans-(1S,2S)-6-Chloro-2-cyclopentylamino-4-fluoro-indan-1-yloxy)-3-fluoro-phenyl]-imidazolidine-2,4-dione] | – | 5.00 to 6.00
8 | Fc1ccc(O[C@H]2c3ccccc3C[C@@H]2N2CCCC2)c(-c2ccn[nH]2)c1 [Example 575, 5-[5-fluoro-2-(trans-(1S,2S)-2-pyrrolidin-1-ylindan-1-yloxy)phenyl]-1H-pyrazole] | 20 to 50 | –
9 | COC(=O)c1ccc(O[C@H]2c3ccccc3CC[C@@H]2N2CCC[C@@H](N)C2)c(Cl)c1 (racemic) [Example 513, 4-[rac-trans-(1,2)-2-((R)-3-aminopiperidin-1-yl)-1,2,3,4-tetrahydronaphthalen-1-yloxy]-3-chlorobenzoic acid methyl ester] | 20 to 50 | –
10 | N[C@H]1CCCN([C@H]2CCc3ccccc3[C@@H]2Oc2cccc(OC(F)F)c2)C1 (racemic) [Example 166, (S)-1-[rac-trans-(1,2)-1-(3-difluoromethoxyphenoxy)-1,2,3,4-tetrahydronaphthalen-2-yl]piperidin-3-ylamine] | 20 to 50 | –
11 | CC(=O)Nc1ccc(OC2c3ccccc3CC2N2CCCC2)cc1 (racemic) [Example 666, N-[4-(rac-trans-(1,2)-2-pyrrolidin-1-ylindan-1-yloxy)phenyl]acetamide] | – | 5.00 to 6.00
12 | CS(=O)(=O)c1ccc(O[C@@H]2c3cc(Cl)cc(F)c3C[C@H]2N2CCC[C@@H](N)C2)cc1 (racemic) [Example 93, (R)-1-[rac-trans-(1,2)-6-chloro-4-fluoro-1-(4-methanesulfonylphenoxy)indan-2-yl]piperidin-3-ylamine] | – | > 6.00
13 | CC(=O)Nc1cccc(O[C@H]2c3ccccc3CC[C@@H]2N2CCC[C@H](N)C2)c1 (racemic) [Example 684, N-{3-[rac-trans-(1,2)-2-((S)-3-aminopiperidin-1-yl)-1,2,3,4-tetrahydronaphthalen-1-yloxy]phenyl}acetamide] | 20 to 50 | –
14 | CC(C)(C)N[C@H]1Cc2ccccc2[C@@H]1Oc1ccc(S(C)(=O)=O)cc1 (racemic) [Example 701, tert-butyl-[1-(4-methanesulfonylphenoxy)indan-2-yl]amine] | – | 5.00 to 6.00
15 | CC1(C)NC(=O)N(c2ccc(F)c(O[C@H]3c4cc(Cl)cc(F)c4C[C@@H]3N3CC[C@@H](O)C3)c2)C1=O [Example 420, 3-{3-[(1S,2S)-6-chloro-4-fluoro-2-((R)-3-hydroxypyrrolidin-1-yl)indan-1-yloxy]-4-fluorophenyl}-5,5-dimethylimidazolidine-2,4-dione] | – | 5.00 to 6.00
16 | CN1CCN(c2cc(O[C@H]3c4cc(Cl)cc(Cl)c4C[C@@H]3N3CC[C@@H](O)C3)ccc2Cl)C1=O [Example 311, 1-{2-chloro-5-[(1S,2S)-4,6-dichloro-2-((R)-3-hydroxypyrrolidin-1-yl)indan-1-yloxy]phenyl}-3-methylimidazolidin-2-one] | 20 to 50 | –
17 | NS(=O)(=O)c1ccc(O[C@H]2c3ccccc3C[C@@H]2N2CCCCC2)cc1 (racemic) [Example 465, 4-(rac-trans-(1,2)-2-piperidin-1-ylindan-1-yloxy)benzenesulfonamide] | – | > 6.00
18 | c1ccc2c(c1)C[C@@H](N1C[C@H]3CNC[C@H]3C1)[C@@H]2Oc1ccc(-n2ccnc2)cc1 (racemic) [Example 7, 2-[rac-trans-(1,2)-1-(4-imidazol-1-ylphenoxy)indan-2-yl]octahydropyrrolo[3,4-c]pyrrole] | – | 5.00 to 6.00
19 | N[C@@H]1CCCN([C@H]2CCc3ccccc3[C@@H]2Oc2ccc(F)c3cccnc23)C1 (racemic) [Example 79, (R)-1-[rac-trans-(1,2)-1-(5-fluoroquinolin-8-yloxy)-1,2,3,4-tetrahydronaphthalen-2-yl]piperidin-3-ylamine] | – | > 6.00
20 | NCC1CCN([C@@H]2Cc3ccccc3[C@H]2Oc2cccc(C(N)=O)c2)C1 (mixture of isomers) [Example 414, 3-[rac-trans-(1,2)-2-(3-aminomethylpyrrolidin-1-yl)indan-1-yloxy]benzamide] | – | 5.00 to 6.00
21 | Cn1ccn(-c2ccc(O[C@H]3c4cc(Cl)cc(Cl)c4C[C@@H]3N3CC[C@@H](O)C3)cc2)c1=O [Example 331, 1-{4-[trans-(1S,2S)-4,6-dichloro-2-((R)-3-hydroxypyrrolidin-1-yl)indan-1-yloxy]phenyl}-3-methyl-1,3-dihydroimidazol-2-one] | – | > 6.00
22 | Cc1nnc(C(C)C)n1-c1ccc(O[C@H]2c3cc(Cl)cc(Cl)c3C[C@@H]2N2CC[C@@H](O)C2)cc1 [Example 715, (R)-1-{trans-(1S,2S)-4,6-Dichloro-1-[4-(3-isopropyl-5-methyl-[1,2,4]triazol-4-yl)-phenoxy]-indan-2-yl}-pyrrolidin-3-ol] | – | > 6.00
23 | CS(=O)(=O)c1ccc(O[C@H]2c3cc(Cl)cc(F)c3C[C@@H]2N2CCNCC2)cc1 (racemic) [Example 292, 1-[rac-trans-(1,2)-6-chloro-4-fluoro-1-(4-methanesulfonylphenoxy)indan-2-yl]piperazine] | – | > 6.00
24 | N[C@H]1CCCN([C@H]2CCc3ccccc3[C@@H]2Oc2ccccc2OC(F)(F)F)C1 (racemic) [Example 159, (S)-1-[rac-trans-(1,2)-1-(2-trifluoromethoxyphenoxy)-1,2,3,4-tetrahydronaphthalen-2-yl]piperidin-3-ylamine] | 20 to 50 | –
25 | CC1(C)OC(=O)N(c2ccc(Cl)c(O[C@H]3c4cc(Cl)cc(Cl)c4C[C@@H]3N3CC[C@@H](O)C3)c2)C1=O [Example 432, 3-{4-chloro-3-[(1S,2S)-4,6-dichloro-2-((R)-3-hydroxypyrrolidin-1-yl)indan-1-yloxy]phenyl}-5,5-dimethyloxazolidine-2,4-dione] | – | 5.00 to 6.00
26 | NCC1CCN([C@@H]2Cc3ccccc3[C@H]2Oc2cccc(NC(N)=O)c2)C1 (mixture of isomers) [Example 233, {3-[rac-trans-(1,2)-2-(3-aminomethylpyrrolidin-1-yl)indan-1-yloxy]phenyl}urea] | – | 5.00 to 6.00
27 | O=C1CNC(=O)N1c1ccc(O[C@H]2c3cc(Cl)cc(Cl)c3C[C@@H]2N2CC[C@@H](O)C2)cc1 [Example 426, 3-{4-[(1S,2S)-4,6-dichloro-2-((R)-3-hydroxypyrrolidin-1-yl)indan-1-yloxy]phenyl}imidazolidine-2,4-dione] | – | > 6.00
28 | O[C@@H]1CCN([C@H]2Cc3c(Cl)cc(Cl)cc3[C@@H]2Oc2ccc(F)cc2-c2ccn[nH]2)C1 [Example 137, (R)-1-{trans-(1S,2S)-4,6-dichloro-1-[4-fluoro-2-(2H-pyrazol-3-yl)phenoxy]indan-2-yl}pyrrolidin-3-ol] | 20 to 50 | –
29 | Cc1nnc(C)n1-c1ccc(O[C@H]2c3cc(Cl)ccc3C[C@@H]2N2CCS(=O)(=O)CC2)c(Cl)c1 [Example 567, 4-{trans-(1S,2S)-6-chloro-1-[2-chloro-4-(3,5-dimethyl-[1,2,4]triazol-4-yl)phenoxy]indan-2-yl}thiomorpholine 1,1-dioxide] | – | 5.00 to 6.00
